From ChEMBL document CHEMBL1131085, “Structure-activity relationships for a series of bis(phenylalkyl)amines: potent subtype-selective inhibitors of N-methyl-D-aspartate receptors” (J Med Chem, 1998) come the findings set out here.

Type in all cases: cell-based, Oocyte
Test [1] has as its target Glutamate NMDA receptor; Grin1/Grin2c (Rattus norvegicus, UniProt P35439+Q00961). Put plainly: Functional antagonism by electrical assays in Xenopus oocytes expressing the 1A/2C NMDA receptor.
The target in test [2] is Glutamate NMDA receptor; Grin1/Grin2a (Rattus norvegicus, UniProt P35439+Q00959). Put plainly: Functional antagonism by electrical assays in Xenopus oocytes expressing 1A/2A NMDA receptor subtype.
Chain of Glutamate NMDA receptor; Grin1/Grin2a (Q00959 whole entry, other chains not shown): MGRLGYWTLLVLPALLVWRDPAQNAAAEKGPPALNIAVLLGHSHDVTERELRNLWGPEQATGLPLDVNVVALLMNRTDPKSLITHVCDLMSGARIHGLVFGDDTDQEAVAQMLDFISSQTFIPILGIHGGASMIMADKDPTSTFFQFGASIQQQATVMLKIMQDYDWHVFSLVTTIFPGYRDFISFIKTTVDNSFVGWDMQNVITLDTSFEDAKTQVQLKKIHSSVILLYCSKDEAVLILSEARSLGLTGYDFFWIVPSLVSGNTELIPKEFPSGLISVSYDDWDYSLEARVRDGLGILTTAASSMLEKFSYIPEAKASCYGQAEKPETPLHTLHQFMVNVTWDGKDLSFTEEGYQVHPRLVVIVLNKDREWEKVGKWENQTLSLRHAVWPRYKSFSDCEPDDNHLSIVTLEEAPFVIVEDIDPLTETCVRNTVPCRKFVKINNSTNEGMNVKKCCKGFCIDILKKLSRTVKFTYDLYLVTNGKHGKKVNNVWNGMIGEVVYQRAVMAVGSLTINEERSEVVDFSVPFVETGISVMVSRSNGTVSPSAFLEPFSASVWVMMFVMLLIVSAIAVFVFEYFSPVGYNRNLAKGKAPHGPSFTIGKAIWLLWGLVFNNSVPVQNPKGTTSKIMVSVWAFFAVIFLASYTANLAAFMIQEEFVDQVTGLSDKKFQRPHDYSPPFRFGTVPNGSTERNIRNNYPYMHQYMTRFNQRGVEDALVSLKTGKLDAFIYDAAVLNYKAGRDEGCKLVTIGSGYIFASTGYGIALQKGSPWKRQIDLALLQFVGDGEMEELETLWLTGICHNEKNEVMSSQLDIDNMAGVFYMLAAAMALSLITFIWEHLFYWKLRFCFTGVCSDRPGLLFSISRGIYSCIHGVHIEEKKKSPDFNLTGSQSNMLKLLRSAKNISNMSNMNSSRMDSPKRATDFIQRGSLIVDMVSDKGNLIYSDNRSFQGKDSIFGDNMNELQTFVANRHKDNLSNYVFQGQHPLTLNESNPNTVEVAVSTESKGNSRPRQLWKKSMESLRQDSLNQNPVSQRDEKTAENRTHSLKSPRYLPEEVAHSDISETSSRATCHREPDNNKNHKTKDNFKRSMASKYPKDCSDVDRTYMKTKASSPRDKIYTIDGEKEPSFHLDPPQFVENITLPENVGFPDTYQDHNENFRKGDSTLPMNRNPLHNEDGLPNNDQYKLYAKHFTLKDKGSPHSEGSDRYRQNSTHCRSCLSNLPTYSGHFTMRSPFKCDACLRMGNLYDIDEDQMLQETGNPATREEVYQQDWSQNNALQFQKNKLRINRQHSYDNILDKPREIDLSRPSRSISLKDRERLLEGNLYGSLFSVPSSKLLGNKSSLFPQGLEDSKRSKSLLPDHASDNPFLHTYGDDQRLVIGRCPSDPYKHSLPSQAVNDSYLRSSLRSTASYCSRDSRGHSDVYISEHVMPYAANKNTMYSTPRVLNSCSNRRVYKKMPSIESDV
The target of test [3] is Glutamate NMDA receptor; Grin1/Grin2b (Rattus norvegicus, UniProt P35439+Q00960). Nature of the test: Functional antagonism by electrical assays in Xenopus oocytes expressing the 1A/2B NMDA receptor.
Chain of Glutamate NMDA receptor; Grin1/Grin2b (Q00960 whole entry, other chains not shown): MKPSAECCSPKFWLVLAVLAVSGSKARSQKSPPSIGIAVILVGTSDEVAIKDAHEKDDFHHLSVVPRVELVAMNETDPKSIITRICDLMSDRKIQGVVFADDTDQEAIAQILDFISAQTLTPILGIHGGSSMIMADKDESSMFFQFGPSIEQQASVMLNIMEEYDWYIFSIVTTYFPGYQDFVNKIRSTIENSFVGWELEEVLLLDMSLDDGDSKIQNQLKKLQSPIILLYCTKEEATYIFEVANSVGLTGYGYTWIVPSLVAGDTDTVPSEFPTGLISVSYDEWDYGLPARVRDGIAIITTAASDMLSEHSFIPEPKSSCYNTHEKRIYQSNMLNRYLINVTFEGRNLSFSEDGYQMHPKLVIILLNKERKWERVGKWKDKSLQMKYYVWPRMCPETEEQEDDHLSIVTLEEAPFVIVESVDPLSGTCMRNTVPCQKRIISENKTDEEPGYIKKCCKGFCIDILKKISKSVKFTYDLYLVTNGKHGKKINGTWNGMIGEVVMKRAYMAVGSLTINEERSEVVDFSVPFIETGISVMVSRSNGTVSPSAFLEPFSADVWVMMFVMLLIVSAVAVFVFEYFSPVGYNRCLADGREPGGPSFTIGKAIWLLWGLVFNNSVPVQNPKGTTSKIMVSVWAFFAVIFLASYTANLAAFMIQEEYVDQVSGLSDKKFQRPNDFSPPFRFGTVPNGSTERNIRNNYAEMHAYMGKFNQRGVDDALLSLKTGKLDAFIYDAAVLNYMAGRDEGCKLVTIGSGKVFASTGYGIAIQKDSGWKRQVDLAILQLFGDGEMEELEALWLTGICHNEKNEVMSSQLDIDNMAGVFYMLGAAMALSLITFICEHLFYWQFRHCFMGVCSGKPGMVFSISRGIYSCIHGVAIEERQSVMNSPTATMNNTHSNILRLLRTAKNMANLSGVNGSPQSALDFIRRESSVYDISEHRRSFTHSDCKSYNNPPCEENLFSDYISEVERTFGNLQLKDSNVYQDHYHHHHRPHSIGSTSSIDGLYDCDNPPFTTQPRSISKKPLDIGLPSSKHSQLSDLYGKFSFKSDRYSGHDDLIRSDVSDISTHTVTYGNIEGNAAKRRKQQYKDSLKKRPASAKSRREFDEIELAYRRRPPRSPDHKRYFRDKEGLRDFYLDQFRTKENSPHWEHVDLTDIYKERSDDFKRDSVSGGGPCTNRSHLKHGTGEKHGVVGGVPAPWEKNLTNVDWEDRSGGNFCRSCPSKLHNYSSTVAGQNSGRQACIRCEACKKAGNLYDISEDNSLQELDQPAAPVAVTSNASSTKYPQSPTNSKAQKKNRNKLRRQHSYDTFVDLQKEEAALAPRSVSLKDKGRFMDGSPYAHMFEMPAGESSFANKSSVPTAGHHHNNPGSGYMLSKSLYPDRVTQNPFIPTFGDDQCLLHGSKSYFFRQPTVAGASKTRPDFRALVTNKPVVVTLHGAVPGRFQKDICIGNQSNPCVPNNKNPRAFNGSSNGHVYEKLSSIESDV

Chain of Glutamate NMDA receptor; Grin1/Grin2c (Q00961 whole entry, other chains not shown): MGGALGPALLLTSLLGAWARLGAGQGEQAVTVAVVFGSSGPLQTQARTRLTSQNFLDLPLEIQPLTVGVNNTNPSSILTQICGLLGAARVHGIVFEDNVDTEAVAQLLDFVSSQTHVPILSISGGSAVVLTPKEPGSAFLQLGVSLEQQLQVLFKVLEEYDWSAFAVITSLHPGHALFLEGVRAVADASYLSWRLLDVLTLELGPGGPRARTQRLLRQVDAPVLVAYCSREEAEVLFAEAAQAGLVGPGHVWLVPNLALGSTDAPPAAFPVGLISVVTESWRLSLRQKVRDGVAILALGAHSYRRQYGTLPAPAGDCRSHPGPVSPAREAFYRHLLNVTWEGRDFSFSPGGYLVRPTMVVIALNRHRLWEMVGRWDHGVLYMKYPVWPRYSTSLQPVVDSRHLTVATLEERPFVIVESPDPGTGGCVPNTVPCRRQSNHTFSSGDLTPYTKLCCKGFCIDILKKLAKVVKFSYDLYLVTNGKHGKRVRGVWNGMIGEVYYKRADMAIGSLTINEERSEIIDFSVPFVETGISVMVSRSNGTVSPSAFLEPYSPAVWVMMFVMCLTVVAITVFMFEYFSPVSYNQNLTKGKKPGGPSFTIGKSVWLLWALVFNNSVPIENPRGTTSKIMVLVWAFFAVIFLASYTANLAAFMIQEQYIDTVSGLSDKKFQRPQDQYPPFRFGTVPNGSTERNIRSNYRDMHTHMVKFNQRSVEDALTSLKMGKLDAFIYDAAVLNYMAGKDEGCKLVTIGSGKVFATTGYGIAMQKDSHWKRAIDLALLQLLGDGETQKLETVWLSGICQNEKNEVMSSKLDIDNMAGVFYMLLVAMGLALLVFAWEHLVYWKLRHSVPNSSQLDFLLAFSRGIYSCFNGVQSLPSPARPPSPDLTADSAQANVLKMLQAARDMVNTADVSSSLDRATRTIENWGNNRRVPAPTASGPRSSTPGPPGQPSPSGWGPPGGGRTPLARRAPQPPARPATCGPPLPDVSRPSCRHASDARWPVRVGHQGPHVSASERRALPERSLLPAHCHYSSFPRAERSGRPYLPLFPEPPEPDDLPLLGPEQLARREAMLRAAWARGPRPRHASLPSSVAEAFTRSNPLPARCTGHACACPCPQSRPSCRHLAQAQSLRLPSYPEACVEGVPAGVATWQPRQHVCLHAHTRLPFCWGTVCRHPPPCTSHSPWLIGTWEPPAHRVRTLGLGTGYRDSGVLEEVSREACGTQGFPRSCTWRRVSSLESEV

With `Oc1ccc(CCNCCCCc2ccccc2)cc1`, the IC50 in test [1] came out at 65 µM; in test [2] it was 15 µM; in test [3], 0.043 µM.
Regarding `Oc1ccc(CCOCCCCc2ccccc2)cc1`, the IC50 in test [1] was above 100 µM; in test [2] it was above 100 µM; in test [3] it was 3.7 µM.
As to `Oc1ccc(CCNCCCCCc2ccccc2)cc1`, the IC50 was 39 µM in test [1], 12 µM in test [2] and 0.008 µM in test [3].
`c1ccc(CCCCNCCc2ccccc2)cc1`: the IC50 was 36 µM in test [1], 46 µM in test [2] and 3.5 µM in test [3].
As for `c1ccc(CCCNCCc2ccccc2)cc1`, the IC50 in test [1] is above 100 µM; in test [2] it was above 100 µM; in test [3], 7.3 µM.
Turning to `CCN(CCCCc1ccccc1)CCc1ccc(O)cc1`, the IC50 in test [1] stood at 88 µM; in test [2] it was 27 µM; in test [3], 0.3 µM.
Regarding `Oc1ccc(CCNCCCc2ccccc2)cc1`, the results for the IC50 in test [1], in test [2] and in test [3] were above 100 µM, 26 µM and 0.096 µM, respectively.
The like results for `Oc1ccc(CCCNCCCCCc2ccccc2)cc1` were, in that order, 39 µM, 18 µM and 0.045 µM.
Turning to `Oc1ccc(CCNCCCCCCc2ccccc2)cc1`, the IC50 in test [1] was determined as 30 µM; in test [2], 17 µM; in test [3] it was 0.035 µM.
On the same counts, the results for `Oc1ccc(CCCNCCCCc2ccccc2)cc1` are 48 µM, 18 µM and 0.015 µM.
For `C[C@H](CCc1ccccc1)N[C@H](C)[C@@H](O)c1ccc(O)cc1`, the IC50 in test [1] was determined as 42 µM; in test [3], 0.18 µM.
In the case of `Oc1ccc(CCN2CCC(Cc3ccccc3)CC2)cc1`, the IC50 in test [1] was above 100 µM; in test [2] it was 57 µM; in test [3] it was 0.2 µM.
As to `c1ccc(CCN2CCC(Cc3ccccc3)CC2)cc1`, the IC50 in test [1] was above 100 µM; in test [2], above 100 µM; in test [3], 1.1 µM.

In general, IC50 refers to the concentration needed to halve the response being measured. A higher IC50 goes with weaker potency.
